{"source": "ChEMBL document CHEMBL2040846", "about": "“A new 9,11-secosterol from the soft coral Sinularia granosa” (Bioorg Med Chem Lett, 2012)", "key": {"[1]": {"test_system": "RAW264.7", "test": "Toxicity against mouse RAW264.7 cells", "assay_type": "cell-based"}, "[2]": {"test_system": "HEp-2", "test": "Antiproliferative activity against human Hep2 cells after 6 days by MTT assay", "assay_type": "functional", "conditions": "HEp-2, 144 h, read-out: ED50 (the source's name)"}, "[3]": {"test_system": "RAW264.7", "test": "Effect on beta-actin protein expression in LPS-induced mouse RAW264.7 cells at 10 uM incubated for 10 mins prior to LPS-challenge measured after 16 hrs by Western blot analysis relative to control", "assay_type": "ADME, cell-based", "conditions": "raw264.7, 16 h"}, "[4]": {"test_system": "MCF7", "test": "Antiproliferative activity against human MCF7 cells after 6 days by MTT assay", "assay_type": "functional", "conditions": "MCF7, 144 h, read-out: ED50 (the source's name)"}, "[5]": {"test_system": "RAW264.7", "test": "Antiinflammatory activity in mouse RAW264.7 cells assessed as inhibition of LPS-induced COX2 expression at 10 uM incubated for 10 mins prior to LPS-challenge measured after 16 hrs by Western blot analysis relative to control", "assay_type": "functional"}, "[6]": {"test_system": "RAW264.7", "test": "Antiinflammatory activity in mouse RAW264.7 cells assessed as inhibition of LPS-induced iNOS expression at 10 uM incubated for 10 mins prior to LPS-challenge measured after 16 hrs by Western blot analysis relative to control", "assay_type": "functional"}, "[7]": {"test_system": "Daoy", "test": "Antiproliferative activity against human DaOY cells after 6 days by MTT assay", "assay_type": "functional", "conditions": "144 h, read-out: ED50 (the source's name)"}, "[8]": {"test_system": "HeLa", "test": "Antiproliferative activity against human HeLa cells after 6 days by MTT assay", "assay_type": "functional", "conditions": "144 h, read-out: ED50 (the source's name)"}}, "data": [{"smiles": "C=C(CC[C@@H](C)[C@H]1CC[C@@H]([C@H]2C[C@@H]3O[C@@]34C[C@@H](O)CC[C@]4(C)C2=O)[C@]1(C)CCO)C(C)C", "values": [{"measurement": "Activity", "setting": "[1]", "value": "Non-toxic"}, {"measurement": "EC50", "setting": "[2]", "value": 6.21, "unit": "µg/mL"}, {"measurement": "Activity", "setting": "[3]", "value": 102.3, "unit": "%"}, {"measurement": "EC50", "setting": "[4]", "value": 4.99, "unit": "µg/mL"}, {"measurement": "inhibition at 10 µM", "setting": "[5]", "value": 42.7, "unit": "%"}, {"measurement": "inhibition at 10 µM", "setting": "[6]", "value": 66.1, "unit": "%"}, {"measurement": "EC50", "setting": "[7]", "value": 5.53, "unit": "µg/mL"}, {"measurement": "EC50", "setting": "[8]", "value": 8.21, "unit": "µg/mL"}]}, {"smiles": "C=C(CC[C@@H](C)[C@H]1CC[C@@H]([C@@H]2C[C@H]3O[C@]34C[C@@H](O)CC[C@]4(C)C2=O)[C@]1(C)CCO)C(C)C", "values": [{"measurement": "Activity", "setting": "[1]", "value": "Non-toxic"}, {"measurement": "EC50", "setting": "[2]", "value": "> 40", "unit": "µg/mL"}, {"measurement": "Activity", "setting": "[3]", "value": 108.9, "unit": "%"}, {"measurement": "EC50", "setting": "[4]", "value": 9.98, "unit": "µg/mL"}, {"measurement": "inhibition at 10 µM", "setting": "[6]", "value": 19.4, "unit": "%"}, {"measurement": "EC50", "setting": "[7]", "value": 7.07, "unit": "µg/mL"}, {"measurement": "EC50", "setting": "[8]", "value": "> 40", "unit": "µg/mL"}]}, {"smiles": "CO[C@@]12[C@H](COC(N)=O)C3=C(C(=O)C(C)=C(N)C3=O)N1C[C@@H]1N[C@@H]12", "note": "[MITOMYCIN]", "values": [{"measurement": "EC50", "setting": "[2]", "value": 0.12, "unit": "µg/mL"}, {"measurement": "EC50", "setting": "[4]", "value": 0.09, "unit": "µg/mL"}, {"measurement": "EC50", "setting": "[7]", "value": 0.08, "unit": "µg/mL"}, {"measurement": "EC50", "setting": "[8]", "value": 0.13, "unit": "µg/mL"}]}]}
